For data set [1], the system named is P. falciparum asexual parasites, chloroquine-sensitive D10 strain. The data set can be described thus: Drug susceptibility assay (pLDH), asexual parasites, D10 strain. In kind it is cell-based, Plasmodium falciparum. The settings on record: for antimalarial activity (in words): asexual and sexual P. falciparum parasites. Here is the method: (§1) Chloroquine (CQ)-sensitive (D10, wild-type 3D7, or transgenic 3D7elo1-pfs16-CBG99) and CQ-resistant (W2) strains of P. falciparum were cultured as described previously ([58]), with slight modifications, as detailed in the supplemental material.
(§2) Asexual parasite growth was determined spectrophotometrically (optical density at 650 nm [OD650]) by measuring the activity of parasite lactate dehydrogenase (pLDH), according to a modified version of the method of Makler et al. ([59]). Gametocyte viability was measured by a luminescence method described previously ([60]). Details for the two methods are reported in the supplemental material. From either the OD or ALU (arbitrary luminescence units), the percentages of viability were calculated according to the formula 100 × (treated sample signal − blank signal)/(untreated control signal − blank signal). The blank for the pLDH assay was uninfected RBCs at the same hematocrit as that of parasitized RBCs, and the blank for the luminescence assay was parasites treated with a high dose of methylene blue. […]
(§3) The CQ-sensitive (D10) and the CQ-resistant (W2) strains were maintained at 5% hematocrit […]
(§4) supplemented with 1% AlbuMaxII (lipid-rich bovine serum albumin) (Invitrogen), 0.01% hypoxantine (Sigma), 20mM Hepes (EuroClone), 2 mM glutamine (EuroClone). […]
(§5) In vitro P. falciparum drug susceptibility assay […]
(§6) plate were transferred to a plate containing 100µl of Malstat reagent (0.11% [vol/vol] Triton- […]
(§7) dinucleotide [APAD] [Sigma-Aldrich], adjusted to pH 9 with 1 M HCl) and 25 µl of PES/NBT […]
(§8) pLDHassay. The plate was read at a wavelength of 650 nm using a microplate reader, Synergy4 […]
(§9) Uninfected RBC at the same HCT than parasites were used as blank. […]

The test system of data set [2] is P. falciparum asexual parasites, chloroquine-resistant W2 strain. The data set can be described thus: Drug susceptibility assay (pLDH), asexual parasites, W2 strain. It is filed as cell-based, Plasmodium falciparum. As to the method:
as §1, §2, §3, §4, §5, §6, §7, §8, §9

For data set [3], the system named is 3D7 immature gametocytes. The data set is described as follows: Gametocyte viability luminescence assay, immature gametocytes. It is filed as cell-based, Plasmodium falciparum. The settings on record: 72 h, read-out: Mean IC50 ± SD, 3D7 immature gametocytes. Here is the method: as §1, §2
(§10) strain (wild type or transgenic 3D7elo1-pfs16-CBG99 strain) was cultured in similar conditions, except for 10% naturally clotted Human O+ serum instead of AlbuMaxII and human type O-positive instead of A-positive RBCs. […]
(§11) in a standard gas mixture consisting of 1% O2, 5% CO2, 94% N2. Immature (stage II-III) and mature (stage V) gametocytes were obtained as described1. Briefly, cultures were diluted to 0.5% parasitemia at 5% HCT, and the medium was changed daily until parasites were stressed by nutrient deprivation. N-acetylglucosamine (NAG) (Sigma-Aldrich) 50 mM was then added to clear residual asexual parasites: Stage II and III gametocytes were obtained 4 days after NAG addition to the culture, while stage IV and V gametocytes were used 11 to 13 days from NAG addition. Gametocyte stages were routinely checked on Giemsa-stained smears. […]
(§12) Drug treated gametocyte cultures were transferred to 96-well black microplates and D-luciferin (1 mM in citrate buffer 0.1 M, pH 5.5) was added at a 1:1 volume ratio. Luminescence measurements were performed after 10 min with 500 ms integration time. Gametocytes treated

Data set [4] has as its system 3D7 mature gametocytes. The data set can be described thus: Gametocyte viability luminescence assay, mature gametocytes. In kind it is cell-based, Plasmodium falciparum. Here is the method:
as §1, §2, §10, §11, §12

The subject of data set [5] is HMEC-1 human microvascular endothelial cells. The data set is described as follows: Cell cytotoxicity MTT assay. As to conditions: for IC50: read-out: Mean HMEC-1 IC50 ± SD; for SI (selectivity index): ratio IC50 against HMEC-1 cells / IC50 against D10 asexual parasites. It is filed as cell-based. As to the method: Cytotoxicity was evaluated on human microvascular endothelial cells (HMEC-1) as detailed in the supplemental material. […] Plates were then read on a microplate reader (Synergy 4; BioTek) at a wavelength of 550 nm (reference, 650 nm). […] All tests were performed in duplicate at least three times.
The selectivity index (SI) is the ratio between the cytotoxic IC50 value against HMEC-1 cells and the parasitic IC50 value against the D10 strain and indicates the compound selectivity for the parasite.
Cytotoxicity was evaluated on Human Microvascular Endothelial Cells (HMEC-1) maintained
and 2 mM L-glutamine. Cells were seeded in 96 well flat bottom tissue culture clusters (1.5x104
cells/well), let adhere overnight and treated with serial dilutions of test compounds . […]

Data set [6] concerns Rac1. Details: method as in PMID 15128949. The settings on record: Rac1 activity in PDGF-stimulated NIH 3T3 fibroblasts; cited from earlier work.
Data set [7] deals with T1, Rac1 (Homo sapiens, UniProt P63000). Details: endogenous in cells. The settings on record: Rac1 activity in human smooth muscle cells; cited from earlier work.
The subject of data set [8] is REF-52 rat embryo fibroblasts. Details: method as in PMID 19549603. The settings on record: Actin stress fiber formation in REF-52 rat embryo fibroblasts; cited from earlier work.
For data set [9], the system named is Rac1. Also on record: method as in PMID 20008126. As to conditions: Rac1 activity in Swiss 3T3 embryonic mouse fibroblasts; cited from earlier work.
The subject of data set [10] is F3II mammary carcinoma cells. Also on record: method as in PMID 24066799. As to conditions: F3II mammary carcinoma cell proliferation; cited from earlier work.
Data set [11] has as its target T1, Rac1. Details: endogenous in cells; method as in PMID 24040362. As to conditions: Rac1 activity in 22Rv1 human prostate cancer cells; cited from earlier work.
In data set [12] the test system is P. falciparum asexual parasites, chloroquine-sensitive D10 strain. Also on record: method as in PMID 33328606. The settings on record: reported previously, read-out: Mean IC50 ± SD, D10; cited from earlier work.
In data set [13] the test system is P. falciparum asexual parasites, chloroquine-resistant W2 strain. Also on record: method as in PMID 33328606. The settings on record: reported previously, read-out: Mean IC50 ± SD, W2; cited from earlier work.
Data set [14] relates to Rac1. Details: method as in PMID 21433368. The settings on record: Rac1 activity in EGF-stimulated NIH 3T3 fibroblasts; cited from earlier work.
In data set [15] the test system is Rac1. Details: method as in PMID 17932039. As to conditions: Rac1 activity in U87MG glioma cells; cited from earlier work.
Where [16] appears, read: asexual parasites, CQ-sensitive D10 strain, 72 h, pLDH, read-out: Mean IC50 ± SD, D10.
The mark [17] stands for this setting: asexual parasites, CQ-resistant W2 strain, 72 h, pLDH, read-out: Mean IC50 ± SD, W2.
[18] abbreviates: stage V gametocytes, 72 h, luminescence, read-out: Mean IC50 ± SD, 3D7 mature gametocytes.
Where [19] appears, read: Plasmodium falciparum, 3D7, stage II-III gametocytes.
[20] abbreviates: Plasmodium falciparum, 3D7, stage V gametocytes, 72 h, luminescence, read-out: Mean IC50 ± SD, 3D7 mature gametocytes.
Where [21] appears, read: Plasmodium falciparum, W2, 72 h, asexual parasites, CQ-resistant W2 strain, 72 h, pLDH, read-out: Mean IC50 ± SD, W2.
Setting [22] is: Homo sapiens, HMEC-1, MTT, 72 h.

Like-named read-outs stand apart in the source and are kept apart here. Some results are limits rather than exact numbers.

`CCN(CC)CCCC(C)Nc1nc(C)cc(Nc2ccc3nc(C)cc(N)c3c2)n1` (stereo not drawn) [NSC23766]: the IC50 in data set [1] (setting [16]) was 5.02 ± 1.47 µM; in [2] (setting [17]), 4.05 ± 0.5 µM; in data set [3] (stage II-III gametocytes) it was 15.3 ± 3.7 µM; in data set [4] (setting [18]) it was 30.8 ± 3.09 µM; in data set [5] (MTT, 72 h) it was 154 ± 38.5 µM; in data set [6], […].

Take `Cc1ccc(NC(=O)c2cccc(OCc3c(C)noc3C)c2)cc1S(N)(=O)=O` [Rac1 inhibitor II]: the IC50 is 11.9 ± 7.37 µM in data set [1] (setting [16]), 37.5 ± 8.67 µM in [2] (setting [17]) and 12.2 µM in [7].

In the case of `Cc1cc(/C=c2/sc3nc4ccccc4n3c2=O)c(C)n1-c1ccccc1` [ITX3], the “antimalarial activity (in words)” value in [1] is “no effect”. Besides, the IC50 in data set [1] (setting [16]) is more than 50 µM; in [2] (setting [17]), more than 50 µM; in data set [8] it was 50 to 100 µM.

Turning to `O=C(C#Cc1ccccc1)c1cccc([N+](=O)[O-])c1` [MLS000532223], the IC50 in data set [1] (setting [16]) was 6.89 ± 0.73 µM; in data set [2] (setting [17]), 9.51 ± 1.66 µM; in [9], approximately 10 µM.

Molecule `CC1CCCN(S(=O)(=O)c2ccc(NC(=O)c3cc(-c4ccccc4O)n[nH]3)cc2)C1` (stereo not drawn) [Compound 3] displayed a melting point of 254 to 258 °C. In addition, the IC50 in data set [1] (Plasmodium falciparum, D10, 72 h, read-out: Mean IC50 ± SD, D10, asexual parasites, CQ-sensitive D10 strain, 72 h, pLDH) was less than 1 µM. Also, in data set [1] (read-out: Mean IC50 ± SD, D10, asexual parasites, CQ-sensitive D10 strain, 72 h, pLDH), the IC50 came to 0.66 ± 0.05 µM. Also, the IC50 in data set [2] (Plasmodium falciparum, W2, 72 h, read-out: Mean IC50 ± SD, W2, asexual parasites, CQ-resistant W2 strain, 72 h, pLDH) is less than 1 µM. Moreover, the IC50 in data set [2] (read-out: Mean IC50 ± SD, W2, asexual parasites, CQ-resistant W2 strain, 72 h, pLDH) was 0.52 ± 0.02 µM. In data set [3] (setting [19]), the IC50 stood at 2.26 ± 0.22 µM. The IC50 in data set [4] (setting [20]) was found to be 21.9 ± 2.71 µM. For the same molecule, the IC50 in [5] (Homo sapiens, HMEC-1, 72 h) was 10.6 ± 1.19 µM.

`Cc1cc(C)nc(N=C(N)Nc2ccccc2C(F)(F)F)n1` [ZINC69391]: the figures for the IC50 in [1] (setting [16]), in data set [2] (setting [17]) and in data set [10] were 17.5 ± 4.64 µM, 12.6 ± 5.25 µM and 61 µM, respectively.

`CN(C)c1ccc2nc3ccc(=[N+](C)C)cc-3sc2c1` [Methylene blue]: the results for the IC50 in data set [3] (setting [19]) and in [4] (setting [20]) were 0.03 ± 0.01 µM and 0.12 ± 0.03 µM, respectively.

Regarding `CC1CCCN(S(=O)(=O)c2cccc(NC(=O)c3cc(-c4ccccc4O)n[nH]3)c2)C1` (stereo not drawn) [Compound 3′], the IC50 in data set [1] (Plasmodium falciparum, D10, 72 h, asexual parasites, CQ-sensitive D10 strain, 72 h, pLDH, read-out: Mean IC50 ± SD, D10) came to 2.76 ± 0.12 µM; in data set [2] (setting [21]), 1.24 ± 0.13 µM; in [3] (setting [19]), 2.13 ± 0.43 µM; in [4] (setting [20]), 26.6 ± 3.7 µM; in data set [5] (setting [22]), 16 ± 0.44 µM. Moreover, the “SI (selectivity index)” value in data set [5] is listed as 5.8.

`Cc1cc2cc(Nc3ccnc(Nc4ccc5[nH]c(C)cc5c4)n3)ccc2[nH]1` [Aza-1]: the IC50 was less than 1 µM in [2] (setting [21]); 0.76 ± 0.27 µM in data set [2] (setting [17]); 1.25 ± 0.48 µM in data set [3] (setting [19]); 7.23 ± 2.12 µM in data set [4] (setting [20]); 12.3 ± 6.11 µM in [5] (setting [22]); 5 to 20 µM in data set [11]. The “SI (selectivity index)” value in data set [5] amounted to 48.9.

Regarding `Cc1cc(C)nc(NS(=O)(=O)c2ccc(NC(=S)NC(=O)COc3ccc(Br)cc3Cl)cc2)n1` [ZCL278], in data set [1], the “antimalarial activity (in words)” value is recorded as “not active”. For the same molecule, the half-inhibitory concentration (IC50) in data set [1] (setting [16]) is more than 50 µM; in data set [2] (setting [17]) it was more than 50 µM; in [4] (Table S2, CDC42 inhibitors, read-out: IC50, 3D7 mature gametocytes), 63.5 ± 27.3 µM.

`Cc1cc(C)cc(NC(N)=Nc2ccccc2C(F)(F)F)c1` [Compound 1A116]: the IC50 in data set [3] (stage II-III gametocytes) was 78.1 ± 17.7 µM; in [4] (setting [18]), 56.6 ± 21.3 µM; in data set [5] (MTT, 72 h) it was 132 ± 37.3 µM; in data set [12] it was 3.21 ± 1.17 µM; in data set [13] it was 6.89 ± 1.41 µM; in data set [10], 4 µM.

Take `CCN(CC)CCCC(C)Nc1ccnc2cc(Cl)ccc12` (stereo not drawn) [Chloroquine]: the IC50 in [1] (Plasmodium falciparum, D10, 72 h, read-out: Mean IC50 ± SD, D10) was determined as 0.02 ± 0.003 µM; in data set [2] (Plasmodium falciparum, W2, 72 h, read-out: Mean IC50 ± SD, W2), 0.42 ± 0.08 µM.

Consider `COc1ccc(C2CC(c3ccccc3)=NN2c2ccc(S(N)(=O)=O)cc2)cc1` (stereo not drawn) [ML141], for which the IC50 is 10.7 ± 0.29 µM in data set [1] (setting [16]), 17.3 ± 1.84 µM in data set [2] (setting [17]) and approximately 10 µM in data set [14].

Consider `O=c1cc(CN2CCOCC2)occ1OCCCCCSc1ccnc2cc(C(F)(F)F)ccc12` [EHT1864], for which the IC50 was more than 50 µM in data set [3] (stage II-III gametocytes); 32.6 ± 0.92 µM in [4] (setting [18]); 48.5 ± 1.23 µM in data set [5] (MTT, 72 h); 3.88 ± 0.74 µM in data set [12]; 7.75 ± 1.82 µM in [13]; 10 to 50 µM in [15].

In general, IC50 refers to the point on the concentration scale where inhibition reaches its midpoint. Broadly, the melting point is the temperature of the solid-liquid transition.

The values are drawn from publication PMC8765435, “In Vitro Antimalarial Activity of Inhibitors of the Human GTPase Rac1” (Antimicrobial Agents and Chemotherapy, 2022).
